Laboratory results from PubChem BioAssay (NCI).
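Interpolation was linear, between the two tested concentrations surrounding the appropriate level; five concentrations were tested over 48 hours in 96-well plates. TGI: total growth inhibition.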

Test system: M14 melanoma
Assay: NCI tumour cell line growth inhibition, 48 h

Structure (SMILES) | TGI [µM]
COc1ccccc1N1C(=O)/C(=C/c2ccc(N(CCC#N)CCC#N)cc2C)N=C1c1cc([N+](=O)[O-])ccc1Cl | > 100
CCCCCCCCC[C@@H]1CC(=O)OCC2OC(O[C@H](CCCCCCCCC)CC(=O)OCC3OC(O[C@H](CCCCCCCCC)CC(=O)OCC4OC(O1)C(O)C(O)C4O)C(O)C(O)C3O)C(O)C(O)C2O (some centres not stated) | 10.2
COc1ccc(-c2onc(-c3ccc([N+](=O)[O-])cc3)c2C2=NCCN2)cc1 | > 100
Cc1cc(Cl)ccc1NC(=O)CCCC(=O)C1CCCC1=O (configuration not stated) | > 100
COc1ccc(NC(=O)C(=O)C(C(=O)c2ccccc2)C2OC(=O)c3ccccc32)c([N+](=O)[O-])c1 (configuration not stated) | > 100
O=C(Nc1ccc(Cl)cc1)C(=O)C(C(=O)c1ccccc1-c1ccccc1)C1OC(=O)c2ccccc21 (configuration not stated) | 42.4

Test system: IGROV1 ovarian
Assay: NCI tumour cell line growth inhibition, 48 h

Structure (SMILES) | TGI [µM]
COc1c2nc(CCl)[nH]c(=O)c2c(OC)c2nc(CCl)[nH]c(=O)c12 | > 100
COc1ccccc1N1C(=O)/C(=C/c2ccc(N(CCC#N)CCC#N)cc2C)N=C1c1cc([N+](=O)[O-])ccc1Cl | > 100
CCCCCCCCC[C@@H]1CC(=O)OCC2OC(O[C@H](CCCCCCCCC)CC(=O)OCC3OC(O[C@H](CCCCCCCCC)CC(=O)OCC4OC(O1)C(O)C(O)C4O)C(O)C(O)C3O)C(O)C(O)C2O (some centres not stated) | 28.2
COc1ccc(-c2onc(-c3ccc([N+](=O)[O-])cc3)c2C2=NCCN2)cc1 | > 100
Cc1cc(Cl)ccc1NC(=O)CCCC(=O)C1CCCC1=O (configuration not stated) | > 100
COc1ccc(NC(=O)C(=O)C(C(=O)c2ccccc2)C2OC(=O)c3ccccc32)c([N+](=O)[O-])c1 (configuration not stated) | > 100
O=C(Nc1ccc(Cl)cc1)C(=O)C(C(=O)c1ccccc1-c1ccccc1)C1OC(=O)c2ccccc21 (configuration not stated) | > 100

Test system: M19-MEL melanoma
Assay: NCI tumour cell line growth inhibition, 48 h

Structure (SMILES) | TGI [µM]
COc1c2nc(CCl)[nH]c(=O)c2c(OC)c2nc(CCl)[nH]c(=O)c12 | > 100
COc1ccccc1N1C(=O)/C(=C/c2ccc(N(CCC#N)CCC#N)cc2C)N=C1c1cc([N+](=O)[O-])ccc1Cl | 56.3
CCCCCCCCC[C@@H]1CC(=O)OCC2OC(O[C@H](CCCCCCCCC)CC(=O)OCC3OC(O[C@H](CCCCCCCCC)CC(=O)OCC4OC(O1)C(O)C(O)C4O)C(O)C(O)C3O)C(O)C(O)C2O (some centres not stated) | 16.5
COc1ccc(-c2onc(-c3ccc([N+](=O)[O-])cc3)c2C2=NCCN2)cc1 | > 100
Cc1cc(Cl)ccc1NC(=O)CCCC(=O)C1CCCC1=O (configuration not stated) | > 100
COc1ccc(NC(=O)C(=O)C(C(=O)c2ccccc2)C2OC(=O)c3ccccc32)c([N+](=O)[O-])c1 (configuration not stated) | > 100
O=C(Nc1ccc(Cl)cc1)C(=O)C(C(=O)c1ccccc1-c1ccccc1)C1OC(=O)c2ccccc21 (configuration not stated) | 41.6

Test system: UACC-62 melanoma
Assay: NCI tumour cell line growth inhibition, 48 h

Structure (SMILES) | TGI [µM]
COc1c2nc(CCl)[nH]c(=O)c2c(OC)c2nc(CCl)[nH]c(=O)c12 | > 100
CCCCCCCCC[C@@H]1CC(=O)OCC2OC(O[C@H](CCCCCCCCC)CC(=O)OCC3OC(O[C@H](CCCCCCCCC)CC(=O)OCC4OC(O1)C(O)C(O)C4O)C(O)C(O)C3O)C(O)C(O)C2O (some centres not stated) | 28.6
COc1ccc(-c2onc(-c3ccc([N+](=O)[O-])cc3)c2C2=NCCN2)cc1 | > 100
Cc1cc(Cl)ccc1NC(=O)CCCC(=O)C1CCCC1=O (configuration not stated) | > 100
COc1ccc(NC(=O)C(=O)C(C(=O)c2ccccc2)C2OC(=O)c3ccccc32)c([N+](=O)[O-])c1 (configuration not stated) | > 100
O=C(Nc1ccc(Cl)cc1)C(=O)C(C(=O)c1ccccc1-c1ccccc1)C1OC(=O)c2ccccc21 (configuration not stated) | 29.5

Test system: DMS 273 small cell lung
Assay: NCI tumour cell line growth inhibition, 48 h

Structure (SMILES) | TGI [µM]
COc1c2nc(CCl)[nH]c(=O)c2c(OC)c2nc(CCl)[nH]c(=O)c12 | > 100
COc1ccccc1N1C(=O)/C(=C/c2ccc(N(CCC#N)CCC#N)cc2C)N=C1c1cc([N+](=O)[O-])ccc1Cl | > 100
CCCCCCCCC[C@@H]1CC(=O)OCC2OC(O[C@H](CCCCCCCCC)CC(=O)OCC3OC(O[C@H](CCCCCCCCC)CC(=O)OCC4OC(O1)C(O)C(O)C4O)C(O)C(O)C3O)C(O)C(O)C2O (some centres not stated) | 21.6
Cc1cc(Cl)ccc1NC(=O)CCCC(=O)C1CCCC1=O (configuration not stated) | > 100
COc1ccc(NC(=O)C(=O)C(C(=O)c2ccccc2)C2OC(=O)c3ccccc32)c([N+](=O)[O-])c1 (configuration not stated) | > 100
O=C(Nc1ccc(Cl)cc1)C(=O)C(C(=O)c1ccccc1-c1ccccc1)C1OC(=O)c2ccccc21 (configuration not stated) | > 100

Test system: SNB-19 CNS
Assay: NCI tumour cell line growth inhibition, 48 h

Structure (SMILES) | TGI [µM]
COc1c2nc(CCl)[nH]c(=O)c2c(OC)c2nc(CCl)[nH]c(=O)c12 | > 100
COc1ccccc1N1C(=O)/C(=C/c2ccc(N(CCC#N)CCC#N)cc2C)N=C1c1cc([N+](=O)[O-])ccc1Cl | > 100
CCCCCCCCC[C@@H]1CC(=O)OCC2OC(O[C@H](CCCCCCCCC)CC(=O)OCC3OC(O[C@H](CCCCCCCCC)CC(=O)OCC4OC(O1)C(O)C(O)C4O)C(O)C(O)C3O)C(O)C(O)C2O (some centres not stated) | 23.6
COc1ccc(-c2onc(-c3ccc([N+](=O)[O-])cc3)c2C2=NCCN2)cc1 | > 100
Cc1cc(Cl)ccc1NC(=O)CCCC(=O)C1CCCC1=O (configuration not stated) | > 100
COc1ccc(NC(=O)C(=O)C(C(=O)c2ccccc2)C2OC(=O)c3ccccc32)c([N+](=O)[O-])c1 (configuration not stated) | > 100
O=C(Nc1ccc(Cl)cc1)C(=O)C(C(=O)c1ccccc1-c1ccccc1)C1OC(=O)c2ccccc21 (configuration not stated) | 38.2

Test system: UACC-257 melanoma
Assay: NCI tumour cell line growth inhibition, 48 h

Structure (SMILES) | TGI [µM]
COc1c2nc(CCl)[nH]c(=O)c2c(OC)c2nc(CCl)[nH]c(=O)c12 | > 100
COc1ccccc1N1C(=O)/C(=C/c2ccc(N(CCC#N)CCC#N)cc2C)N=C1c1cc([N+](=O)[O-])ccc1Cl | > 100
CCCCCCCCC[C@@H]1CC(=O)OCC2OC(O[C@H](CCCCCCCCC)CC(=O)OCC3OC(O[C@H](CCCCCCCCC)CC(=O)OCC4OC(O1)C(O)C(O)C4O)C(O)C(O)C3O)C(O)C(O)C2O (some centres not stated) | 24.2
COc1ccc(-c2onc(-c3ccc([N+](=O)[O-])cc3)c2C2=NCCN2)cc1 | 52.1
Cc1cc(Cl)ccc1NC(=O)CCCC(=O)C1CCCC1=O (configuration not stated) | > 100
COc1ccc(NC(=O)C(=O)C(C(=O)c2ccccc2)C2OC(=O)c3ccccc32)c([N+](=O)[O-])c1 (configuration not stated) | > 100
O=C(Nc1ccc(Cl)cc1)C(=O)C(C(=O)c1ccccc1-c1ccccc1)C1OC(=O)c2ccccc21 (configuration not stated) | 61.3

Test system: DLD-1 colon
Assay: NCI tumour cell line growth inhibition, 48 h

Structure (SMILES) | TGI [µM]
COc1c2nc(CCl)[nH]c(=O)c2c(OC)c2nc(CCl)[nH]c(=O)c12 | > 100
